Where two headings read alike, the source gives them in different places.
Tests used:
[1] = tested on: Chrysanthemum variety "Regal Anne"; test: Biological tests on chrysanthemums, height reduction and delay in flowering; type: in vivo
Experimental: (§1) In these tests chrysanthemum varieties were used which, on account of their strong growth, can only be reared as pot plants in combination with growth inhibitors.
(§2) About 25 days after potting (14 days after pinching) the plants were sprayed with aqueous preparations of the active substance of the Example and with Alar (known inhibitior for comparison). The growth in height of the plants was measured after three different periods (see table) and the growth inhibition is expressed in percent of the height measured on untreated plants (check = 0% reduction).
(§3) The delay in flowering was evaluated as follows: • ^* = 3-4 days delay DAA = Days after application • ^** = 4-7 days delay

[2] = tested on: Chrysanthemum variety "Aglow"; test: as above; type: in vivo; conditions: foliar spray
Experimental: as §1, §2, §3

[3] = tested on: Chrysanthemum variety "Golden Anne"; test: as above; type: in vivo; conditions: foliar spray
Experimental: as §1, §2, §3

[4] = tested on: Chrysanthemum variety "Wedgewood"; test: as above; type: in vivo; conditions: foliar spray
Experimental: as §1, §2, §3

[5] = tested on: Soya plants of the variety "Hark"; test: Inhibition of the vegetative growth and yield increase of soya plants; type: in vivo; conditions: for Inhibition rating: 5-trifoliate leaf stage, 4 weeks after application, linear rating 1-9; for % increase of pods A (number of pods) / % increase of pods B (weight of pods): versus untreated control plants
Experimental: Soya plants of the variety "Hark" were reared in earthenware pots and sprayed at the 5-trifoliate leaf stage with aqueous preparations of the active substance of the Example. The active substance concentrations in the spray broth were 500, 100 and 50 ppm respectively. The plant growth was evaluated 4 weeks after application in accordance with the following linear rating: • 1 = strong inhibition (no growth from the time of application) • 9 = no inhibition (growth as untreated controls)
The yield increase was evaluated at the sime time in percent increase of the pods when compared with the yield of pods obtained with untreated control plants.
Value A expresses the % increase in number of pods Value B express the % increase in weight of pods.

[6] = Stability against hydrolysis; type: physicochemical; conditions: all pH-ranges from 3 to 10
Experimental: (§4) 14,3 g (0,06 mole) of pyrrolidinoacetic acid 3-chloro-anilide are dissolved in 50 ml of ethyl acetate and then 9,4 g (0,078 mole) of allyl bromide are added. The reaction mixture is refluxed for 3 hours and the quaternised end product initially separates out as an oil which chrystallises after a brief time.After filtration with suction, washing with ethyl acetate and drying in vacuo at 50°C, 21,5 g (99,5% of theory) of the quaternary allyl pyrrolidino bromide of the formula [drawing 3] are obtained. Meting point: 144-147°C. The product is colourless, soluble in water (3,7%) and methanol (30%) and stable against hydrolysis in all pH-ranges from 3 to 10.

chrysanthemums = test: Trials under practical conditions on chrysanthemums; type: in vivo; conditions: independent of environmental conditions
Source text: This inhibition is independent of environmental conditions (e.g. it is not light-dependent). Depending on the applied rate, any desired degree of growth inhibition can be obtained.

chrysanthemum varieties = test: Biological tests on chrysanthemums, summary over all varieties; type: in vivo; conditions: depending on the variety; in sufficient water to wet all the foliage
Experimental: as §1, §2
Depending on the variety the optimal growth inhibition (20 to 35%) was obtained with rates between 125-250 ppm of the active ingredient of the Example in sufficient water to wet all the foliage. With one variety a soil drench application was also performed.

[7] = tested on: Chrysanthemum variety "Regal Anne"; test: Biological tests on chrysanthemums, height reduction and delay in flowering; type: in vivo; conditions: Soil drench, 250 ppm
[8] = Solubility of the product; type: physicochemical
Experimental: as §4

For `CN(C)NC(=O)CCC(=O)O` [A, succinic acid mono-N-dimethylhydrazide, reference compound], the delay in flowering ([1]; foliar spray, 3400 ppm) was “* (^* = 3-4 days delay)”, the “height reduction against check” value ([1]; foliar spray, 3400 ppm, 11 DAA) was 40% and the “height reduction against check” value ([1]; foliar spray, 3400 ppm, 30 DAA) was 40%. The “height reduction against check” value ([1]; foliar spray, 3400 ppm, 55 DAA) was 25%, the delay in flowering ([2]; 3400 ppm) was “* (^* = 3-4 days delay)” and the “height reduction against check” value ([2]; 3400 ppm, 14 DAA) was 20%. For the same compound, the “height reduction against check” value ([2]; 3400 ppm, 32 DAA) was 30%, the “height reduction against check” value ([2]; 3400 ppm, 39 DAA) was 25% and the delay in flowering ([3]; 3400 ppm) was “* (^* = 3-4 days delay)”. For the same compound, the “height reduction against check” value ([3]; 3400 ppm, 14 DAA) was 30%, the “height reduction against check” value ([3]; 3400 ppm, 32 DAA) was 30% and the “height reduction against check” value ([3]; 3400 ppm, 39 DAA) was 25%. For the same compound, the delay in flowering ([4]; 3400 ppm) was “* (^* = 3-4 days delay)”, the “height reduction against check” value ([4]; 3400 ppm, 14 DAA) was 30% and the “height reduction against check” value ([4]; 3400 ppm, 32 DAA) was 30%. For the same compound, the “height reduction against check” value ([4]; 3400 ppm, 39 DAA) was 25%.
With `C=CC[N+]1(CC(=O)Nc2cccc(Cl)c2)CCCC1` [B] the Inhibition rating ([5]; 50 ppm spray) was 6, the “% increase of pods A (number of pods)” value ([5]; 50ppm) was 45% and the “% increase of pods B (weight of pods)” value ([5]; 50ppm) was 43%. For the same compound, the Inhibition rating ([5]; 100 ppm spray) was 7, the “% increase of pods A (number of pods)” value ([5]; 100 ppm) was 22% and the “% increase of pods B (weight of pods)” value ([5]; 100 ppm) was 11%. The Inhibition rating ([5]; 500 ppm spray) was 6, the “% increase of pods A (number of pods)” value ([5]; 500 ppm) was 2% and the “% increase of pods B (weight of pods)” value ([5]; 500 ppm) was 0%. For the same compound, the stable against hydrolysis [6] was “stable”, the “inhibition of internode growth” value (chrysanthemums) was “uniform and reproducible inhibition of internode growth” and the “height reduction against check” value ([1]; Soil drench, 250 ppm, 30 DAA) was 50%. The “height reduction against check” value ([1]; Soil drench, 250 ppm, 55 DAA) was 50%, the delay in flowering ([1]; foliar spray, 125 ppm) was “* (^* = 3-4 days delay)” and the “height reduction against check” value ([1]; foliar spray, 125 ppm, 11 DAA) was 10%. The “height reduction against check” value ([1]; foliar spray, 125 ppm, 30 DAA) was 25%, the “height reduction against check” value ([1]; foliar spray, 125 ppm, 55 DAA) was 25% and the delay in flowering ([1]; foliar spray, 250 ppm) was “* (^* = 3-4 days delay)”. For the same compound, the “height reduction against check” value ([1]; foliar spray, 250 ppm, 11 DAA) was 25%, the “height reduction against check” value ([1]; foliar spray, 250 ppm, 30 DAA) was 50% and the “height reduction against check” value ([1]; foliar spray, 250 ppm, 55 DAA) was 25%. The delay in flowering ([1]; foliar spray, 500 ppm) was “* (^* = 3-4 days delay)”, the “height reduction against check” value ([1]; foliar spray, 500 ppm, 11 DAA) was 25% and the “height reduction against check” value ([1]; foliar spray, 500 ppm, 30 DAA) was 60%. The “height reduction against check” value ([1]; foliar spray, 500 ppm, 55 DAA) was 40%, the delay in flowering ([1]; foliar spray, 1000 ppm) was “* (^* = 3-4 days delay)” and the “height reduction against check” value ([1]; foliar spray, 1000 ppm, 11 DAA) was 25%. For the same compound, the “height reduction against check” value ([1]; foliar spray, 1000 ppm, 30 DAA) was 60%, the “height reduction against check” value ([1]; foliar spray, 1000 ppm, 55 DAA) was 40% and the delay in flowering ([1]; foliar spray, 2000 ppm) was “** (^** = 4-7 days delay)”. The “height reduction against check” value ([1]; foliar spray, 2000 ppm, 11 DAA) was 40%, the “height reduction against check” value ([1]; foliar spray, 2000 ppm, 30 DAA) was 75% and the “height reduction against check” value ([1]; foliar spray, 2000 ppm, 55 DAA) was 50%. The delay in flowering ([2]; 125 ppm) was “* (^* = 3-4 days delay)”, the “height reduction against check” value ([2]; 125 ppm, 14 DAA) was 0% and the “height reduction against check” value ([2]; 125 ppm, 32 DAA) was 0%. The “height reduction against check” value ([2]; 125 ppm, 39 DAA) was 10%, the delay in flowering ([2]; 250 ppm) was “* (^* = 3-4 days delay)” and the “height reduction against check” value ([2]; 250 ppm, 14 DAA) was 10%. For the same compound, the “height reduction against check” value ([2]; 250 ppm, 32 DAA) was 10%, the “height reduction against check” value ([2]; 250 ppm, 39 DAA) was 25% and the “height reduction against check” value ([2]; 500 ppm, 14 DAA) was 15%. The “height reduction against check” value ([2]; 500 ppm, 32 DAA) was 25%, the “height reduction against check” value ([2]; 500 ppm, 39 DAA) was 30% and the delay in flowering ([3]; 125 ppm) was “* (^* = 3-4 days delay)”. For the same compound, the “height reduction against check” value ([3]; 125 ppm, 14 DAA) was 10%, the “height reduction against check” value ([3]; 125 ppm, 32 DAA) was 30% and the “height reduction against check” value ([3]; 125 ppm, 39 DAA) was 20%. The delay in flowering ([3]; 250 ppm) was “** (^** = 4-7 days delay)”, the “height reduction against check” value ([3]; 250 ppm, 14 DAA) was 20% and the “height reduction against check” value ([3]; 250 ppm, 32 DAA) was 35%. For the same compound, the “height reduction against check” value ([3]; 250 ppm, 39 DAA) was 30%, the delay in flowering ([3]; 500 ppm) was “** (^** = 4-7 days delay)” and the “height reduction against check” value ([3]; 500 ppm, 14 DAA) was 30%. The “height reduction against check” value ([3]; 500 ppm, 32 DAA) was 40%, the “height reduction against check” value ([3]; 500 ppm, 39 DAA) was 35% and the delay in flowering ([4]; 125 ppm) was “* (^* = 3-4 days delay)”. The “height reduction against check” value ([4]; 125 ppm, 14 DAA) was 10%, the “height reduction against check” value ([4]; 125 ppm, 32 DAA) was 10% and the “height reduction against check” value ([4]; 125 ppm, 39 DAA) was 20%. The delay in flowering ([4]; 250 ppm) was “* (^* = 3-4 days delay)”, the “height reduction against check” value ([4]; 250 ppm, 14 DAA) was 15% and the “height reduction against check” value ([4]; 250 ppm, 32 DAA) was 15%. For the same compound, the “height reduction against check” value ([4]; 250 ppm, 39 DAA) was 25%, the delay in flowering ([4]; 500 ppm) was “* (^* = 3-4 days delay)” and the “height reduction against check” value ([4]; 500 ppm, 14 DAA) was 15%. For the same compound, the “height reduction against check” value ([4]; 500 ppm, 32 DAA) was 25%, the “height reduction against check” value ([4]; 500 ppm, 39 DAA) was 25% and the “rates giving the optimal growth inhibition (20 to 35%)” value (chrysanthemum varieties) was 125-250 ppm. For the same compound, the delay in flowering [7] was “** (^** = 4-7 days delay)”, the “height reduction against check” value ([7]; 11 DAA) was 25% and the solubility ([8]; methanol, organic solvent or mixture, read-out: soluble in methanol) was 300 mg/mL. The solubility ([8]; water, read-out: soluble in water) was 37 mg/mL.
